IC50 data for 20 compounds are collected here from patent publication US11306078B2, “Piperidine CXCR7 receptor modulators” (IDORSIA PHARMACEUTICALS LTD., priority 2016, dated 2022).

The target of this assay is human chemokine receptor CXCR7 (Homo sapiens (Human), UniProt P25106). Nature of the assay: Tango CXCR7-bla U2OS beta-arrestin recruitment assay (beta-lactamase reporter, FRET), antagonism of CXCL12/SDF1-α.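 Also: compounds preincubated 15 min before CXCL12 addition, then 22 h at 37 °C, FRET emission ratio read with CCF4-AM substrate after 2 h.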 The format is cell-based. The following applies: antagonistic effect on CXCR7; Tango CXCR7-bla U2OS cells, CXCL12/SDF1-α at its EC80. For orientation: Recruitment of arrestin is a read-out of receptor activation apart from second messengers.

pIC50: −log10 of the molar value.

Chain of human chemokine receptor CXCR7 (P25106 whole entry): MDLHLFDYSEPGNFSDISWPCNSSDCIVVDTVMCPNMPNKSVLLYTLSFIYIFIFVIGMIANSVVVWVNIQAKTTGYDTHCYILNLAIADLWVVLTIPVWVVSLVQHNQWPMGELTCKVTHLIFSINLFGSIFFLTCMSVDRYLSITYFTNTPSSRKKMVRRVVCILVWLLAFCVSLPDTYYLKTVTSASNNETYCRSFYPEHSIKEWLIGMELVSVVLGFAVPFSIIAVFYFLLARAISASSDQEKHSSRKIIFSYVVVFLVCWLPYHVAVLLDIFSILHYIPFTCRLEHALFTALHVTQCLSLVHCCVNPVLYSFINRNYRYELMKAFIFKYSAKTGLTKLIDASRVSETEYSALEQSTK

`CN(C)C(=O)[C@@H]1CN(C2CCCCC2)CC[C@H]1NC(=O)c1cn(-c2ccc(F)cc2F)nn1` (single isomer, unassigned) [Example 1.095a, (3R,4R)-1-Cyclohexyl-4-{[1-(2,4-difluoro-phenyl)-1H-[1,2,3]triazole-4-carbonyl]-amino}-piperidine-3-carboxylic acid dimethylamide or (3S,4S)-1-Cyclohexyl-4-{[1-(2,4-difluoro-phenyl)-1H-[1,2,3]triazole-4-carbonyl]-amino}-piperidine-3-carboxylic acid dimethylamide] gave a pIC50 of 6.89.
With `COCC(C)(C)NC(=O)[C@@H]1CN(C2CCCCC2)CC[C@H]1NC(=O)c1cc(-c2c(F)cc(F)cc2F)on1` (single isomer, unassigned) [Example 1.111a, (3R*,4R*)-1-Cyclohexyl-4-{[5-(2,4,6-trifluoro-phenyl)-isoxazole-3-carbonyl]-amino}-piperidine-3-carboxylic acid (2-methoxy-1,1-dimethyl-ethyl)-amide], the pIC50 is 6.03.
As to `COCC(C)(C)NC(=O)[C@@H]1CN(C2CCCCC2)CC[C@H]1NC(=O)c1cc(-c2c(F)cc(F)cc2F)on1` (single isomer, unassigned) [Example 1.111b, (3R*,4R*)-1-Cyclohexyl-4-{[5-(2,4,6-trifluoro-phenyl)-isoxazole-3-carbonyl]-amino}-piperidine-3-carboxylic acid (2-methoxy-1,1-dimethyl-ethyl)-amide], the pIC50 was 6.94.
For `COCC(C)(C)NC(=O)[C@@H]1CN(CC2CC2)CC[C@H]1NC(=O)c1cc(-c2c(F)cc(F)cc2F)on1` (single isomer, unassigned) [Example 1.113a, (3R*,4R*)-1-Cyclopropylmethyl-4-{[5-(2,4,6-trifluoro-phenyl)-isoxazole-3-carbonyl]-amino}-piperidine-3-carboxylic acid (2-methoxy-1,1-dimethyl-ethyl)-amide], the negative logarithm of the IC50 (pIC50) is 6.25.
To `COCC(C)(C)NC(=O)[C@@H]1CN(CC2CC2)CC[C@H]1NC(=O)c1cc(-c2c(F)cc(F)cc2F)on1` (single isomer, unassigned) [Example 1.113b, (3R*,4R*)-1-Cyclopropylmethyl-4-{[5-(2,4,6-trifluoro-phenyl)-isoxazole-3-carbonyl]-amino}-piperidine-3-carboxylic acid (2-methoxy-1,1-dimethyl-ethyl)-amide] belongs 7.32.
Compound `C[C@@H](NC(=O)[C@H]1CN(C2CCCCC2)CC[C@@H]1NC(=O)c1cn(-c2ccc(F)cc2F)nn1)c1ccccn1` (single isomer, unassigned) [Example 1.117a, (3S,4S)-1-Cyclohexyl-4-{[1-(2,4-difluoro-phenyl)-1H-[1,2,3]triazole-4-carbonyl]-amino}-piperidine-3-carboxylic acid ((R)-1-pyridin-2-yl-ethyl)-amide or (3R,4R)-1-Cyclohexyl-4-{[1-(2,4-difluoro-phenyl)-1H-[1,2,3]triazole-4-carbonyl]-amino}-piperidine-3-carboxylic acid ((R)-1-pyridin-2-yl-ethyl)-amide] gave a pIC50 of 7.41.
To `C[C@@H](NC(=O)[C@H]1CN(C2CCCC2)CC[C@@H]1NC(=O)c1cn(-c2ccc(F)cc2F)nn1)c1ccccn1` (single isomer, unassigned) [Example 1.118a, (3S,4S)-1-Cyclopentyl-4-{[1-(2,4-difluoro-phenyl)-1H-[1,2,3]triazole-4-carbonyl]-amino}-piperidine-3-carboxylic acid ((R)-1-pyridin-2-yl-ethyl)-amide or (3R,4R)-1-Cyclopentyl-4-{[1-(2,4-difluoro-phenyl)-1H-[1,2,3]triazole-4-carbonyl]-amino}-piperidine-3-carboxylic acid ((R)-1-pyridin-2-yl-ethyl)-amide] belongs 7.12.
The value for `C[C@@H](NC(=O)[C@@H]1CN(C2CCCCC2)CC[C@H]1NC(=O)c1cc(-c2c(F)cc(F)cc2F)on1)c1ccccn1` (single isomer, unassigned) [Example 1.121a, (3R*,4R*)-1-Cyclohexyl-4-{[5-(2,4,6-trifluoro-phenyl)-isoxazole-3-carbonyl]-amino}-piperidine-3-carboxylic acid ((R)-1-pyridin-2-yl-ethyl)-amide] was 6.13; that for `C[C@@H](NC(=O)[C@@H]1CN(C2CCCCC2)CC[C@H]1NC(=O)c1cc(-c2c(F)cc(F)cc2F)on1)c1ccccn1` (single isomer, unassigned) [Example 1.121b, (3R*,4R*)-1-Cyclohexyl-4-{[5-(2,4,6-trifluoro-phenyl)-isoxazole-3-carbonyl]-amino}-piperidine-3-carboxylic acid ((R)-1-pyridin-2-yl-ethyl)-amide] was 8.70; that for `C[C@@H](NC(=O)[C@@H]1CN(C2CCCC2)CC[C@H]1NC(=O)c1cc(-c2c(F)cc(F)cc2F)on1)c1ccccn1` (single isomer, unassigned) [Example 1.122a, (3R*,4R*)-1-Cyclopentyl-4-{[5-(2,4,6-trifluoro-phenyl)-isoxazole-3-carbonyl]-amino}-piperidine-3-carboxylic acid ((R)-1-pyridin-2-yl-ethyl)-amide] was 6.28.
To `C[C@@H](NC(=O)[C@@H]1CN(C2CCCC2)CC[C@H]1NC(=O)c1cc(-c2c(F)cc(F)cc2F)on1)c1ccccn1` (single isomer, unassigned) [Example 1.122b, (3R*,4R*)-1-Cyclopentyl-4-{[5-(2,4,6-trifluoro-phenyl)-isoxazole-3-carbonyl]-amino}-piperidine-3-carboxylic acid ((R)-1-pyridin-2-yl-ethyl)-amide] belongs 7.77.
Compound `C[C@@H](NC(=O)[C@H]1CN(CC2CC2)CC[C@@H]1NC(=O)c1cc(-c2c(F)cc(F)cc2F)on1)c1ccccn1` (single isomer, unassigned) [Example 1.123a, (3S,4S)-1-Cyclopropylmethyl-4-{[5-(2,4,6-trifluoro-phenyl)-isoxazole-3-carbonyl]-amino}-piperidine-3-carboxylic acid ((R)-1-pyridin-2-yl-ethyl)-amide or (3R,4R)-1-Cyclopropylmethyl-4-{[5-(2,4,6-trifluoro-phenyl)-isoxazole-3-carbonyl]-amino}-piperidine-3-carboxylic acid ((R)-1-pyridin-2-yl-ethyl)-amide] had a pIC50 of 8.40.
`C[C@@H](NC(=O)[C@H]1CN(C2CCCCC2)CC[C@@H]1NC(=O)c1cc(-c2ccc(F)cc2F)no1)c1ccccn1` (single isomer, unassigned) [Example 1.125a, (3S,4S)-1-Cyclohexyl-4-{[3-(2,4-difluoro-phenyl)-isoxazole-5-carbonyl]-amino}-piperidine-3-carboxylic acid ((R)-1-pyridin-2-yl-ethyl)-amide or (3R,4R)-1-Cyclohexyl-4-{[3-(2,4-difluoro-phenyl)-isoxazole-5-carbonyl]-amino}-piperidine-3-carboxylic acid ((R)-1-pyridin-2-yl-ethyl)-amide]: the pIC50 was 7.52.
The value for `C[C@@H](NC(=O)[C@@H]1CN(C2CCCCC2)CC[C@H]1NC(=O)c1cc(-c2c(F)cc(F)cc2F)on1)c1cnccn1` (single isomer, unassigned) [Example 1.129a, (3R*,4R*)-1-Cyclohexyl-4-{[5-(2,4,6-trifluoro-phenyl)-isoxazole-3-carbonyl]-amino}-piperidine-3-carboxylic acid ((R)-1-pyrazin-2-yl-ethyl)-amide] was 6.19; that for `C[C@@H](NC(=O)[C@@H]1CN(C2CCCCC2)CC[C@H]1NC(=O)c1cc(-c2c(F)cc(F)cc2F)on1)c1cnccn1` (single isomer, unassigned) [Example 1.129b, (3R*,4R*)-1-Cyclohexyl-4-{[5-(2,4,6-trifluoro-phenyl)-isoxazole-3-carbonyl]-amino}-piperidine-3-carboxylic acid ((R)-1-pyrazin-2-yl-ethyl)-amide] was 7.46; that for `C[C@@H](NC(=O)[C@@H]1CN(C2CCCC2)CC[C@H]1NC(=O)c1cc(-c2c(F)cc(F)cc2F)on1)C1CCC1` (single isomer, unassigned) [Example 1.138a, (3R*,4R*)-1-Cyclopentyl-4-{[5-(2,4,6-trifluoro-phenyl)-isoxazole-3-carbonyl]-amino}-piperidine-3-carboxylic acid ((R)-1-cyclobutyl-ethyl)-amide] was 6.36.
The value for `C[C@@H](NC(=O)[C@@H]1CN(C2CCCC2)CC[C@H]1NC(=O)c1cc(-c2c(F)cc(F)cc2F)on1)C1CCC1` (single isomer, unassigned) [Example 1.138b, (3R*,4R*)-1-Cyclopentyl-4-{[5-(2,4,6-trifluoro-phenyl)-isoxazole-3-carbonyl]-amino}-piperidine-3-carboxylic acid ((R)-1-cyclobutyl-ethyl)-amide] was 7.08; that for `C[C@@H](NC(=O)[C@@H]1CN(CC2CC2)CC[C@H]1NC(=O)c1cc(-c2c(F)cc(F)cc2F)on1)C1CCC1` (single isomer, unassigned) [Example 1.139a, (3R*,4R*)-1-Cyclopropylmethyl-4-{[5-(2,4,6-trifluoro-phenyl)-isoxazole-3-carbonyl]-amino}-piperidine-3-carboxylic acid ((R)-1-cyclobutyl-ethyl)-amide] was 6.10.
The compound `C[C@@H](NC(=O)[C@@H]1CN(CC2CC2)CC[C@H]1NC(=O)c1cc(-c2c(F)cc(F)cc2F)on1)C1CCC1` (single isomer, unassigned) [Example 1.139b, (3R*,4R*)-1-Cyclopropylmethyl-4-{[5-(2,4,6-trifluoro-phenyl)-isoxazole-3-carbonyl]-amino}-piperidine-3-carboxylic acid ((R)-1-cyclobutyl-ethyl)-amide] gave a pIC50 of 7.54.
Compound `C[C@@H](NC(=O)[C@H]1CN(CC2CC2)CC[C@@H]1NC(=O)c1cc(-c2ccc(F)cc2F)no1)c1ccccn1` (single isomer, unassigned) [Example 1.154a, (3S,4S)-1-Cyclopropylmethyl-4-{[3-(2,4-difluoro-phenyl)-isoxazole-5-carbonyl]-amino}-piperidine-3-carboxylic acid ((R)-1-pyridin-2-yl-ethyl)-amide or (3R,4R)-1-Cyclopropylmethyl-4-{[3-(2,4-difluoro-phenyl)-isoxazole-5-carbonyl]-amino}-piperidine-3-carboxylic acid ((R)-1-pyridin-2-yl-ethyl)-amide] gave a pIC50 of 7.34.

By pIC50 is commonly meant the IC50 on a negative log10 scale, so that one unit is a factor of ten. A high value points to a small IC50.
